We go through eight compounds from the supplement of paper PMC10627819.

What all share (assay): Bliss interaction score (quartile over a dose matrix) (fitness difference); higher = more antagonism (negative = synergy)
One assay concerns S. pneumoniae D39V. Summed up:
(§1)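 Values were capped at 1 after dividing OD595 at stationary-phase entry by the plate's robust no-drug mean. This ratio is fitness, and single-drug fitness was inferred from the combination data. The Bliss score is observed minus product-expected fitness, given as quartiles over technical, biological and donor/recipient replicates.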

The next assay relates to S. aureus DSM 20231. Summed up:
as §1

For the next assay, the system named is S. aureus Newman. Summed up: as §1
The next assay deals with B. subtilis 168. The essentials: as §1
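Further: first quartile when negative (synergy) and third quartile when positive (antagonism).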

In the case of `CC[C@H]1OC(=O)[C@H](C)[C@@H](O[C@H]2C[C@@](C)(OC)[C@@H](O)[C@H](C)O2)[C@H](C)[C@@H](O[C@@H]2O[C@H](C)C[C@H](N(C)C)[C@H]2O)[C@](C)(O)C[C@@H](C)C(=O)[C@H](C)[C@@H](O)[C@]1(C)O` [Erythromycin] + CC1=C\[C@@H](O)CC(=O)Cc2nc(co2)C(=O)N2CCC=C2C(=O)O[C@H](C(C)C)[C@H](C)/C=C/C(=O)NC\C=C\1 [Virginiamycin M1], the Bliss interaction score in the assay on S. pneumoniae D39V was 0.0687; in the assay with S. aureus DSM 20231, 0.0769; in the assay on S. aureus Newman it was 0.066; in the assay on B. subtilis 168 it was -0.0578.
For the compound `CO[C@H]1/C=C/O[C@@]2(C)Oc3c(C)c(O)c4c(O)c(c(/C=N/N5CCN(C)CC5)c(O)c4c3C2=O)NC(=O)/C(C)=C\C=C\[C@H](C)[C@H](O)[C@@H](C)[C@@H](O)[C@@H](C)[C@H](OC(C)=O)[C@@H]1C` [Rifampicin] + Oc1cc(Cl)ccc1Oc1ccc(Cl)cc1Cl [Triclosan], the Bliss interaction score in the assay on S. pneumoniae D39V is -0.0563; in the assay on S. aureus DSM 20231, -0.0595; in the assay with S. aureus Newman it was 0.0206; in the assay with B. subtilis 168, 0.0445.
For `CO[C@@]12[C@H](COC(N)=O)C3=C(C(=O)C(C)=C(N)C3=O)N1C[C@@H]1N[C@@H]12` [MitomycinC] + CC1(C)S[C@@H]2[C@H](NC(=O)Cc3ccccc3)C(=O)N2[C@H]1C(=O)O [PenicillinG], the Bliss interaction score was 0.103 in the assay with S. pneumoniae D39V, -0.0709 in the assay on S. aureus DSM 20231, -0.0455 in the assay with S. aureus Newman and -0.0602 with B. subtilis 168.
For `CC[C@H](C)[C@H](N)C1=N[C@H](C(=O)N[C@@H](CC(C)C)C(=O)N[C@H](CCC(=O)O)C(=O)N[C@H](C(=O)N[C@H]2CCCCNC(=O)[C@H](CC(N)=O)NC(=O)[C@@H](CC(=O)O)NC(=O)[C@H](Cc3cnc[nH]3)NC(=O)[C@@H](Cc3ccccc3)NC(=O)[C@H]([C@@H](C)CC)NC(=O)[C@@H](CCCN)NC2=O)[C@@H](C)CC)CS1` [Bacitracin] + CN[C@H](CC(C)C)C(=O)N[C@H]1C(=O)N[C@@H](CC(N)=O)C(=O)N[C@H]2C(=O)N[C@H]3C(=O)N[C@H](C(=O)N[C@H](C(=O)O)c4cc(O)cc(O)c4-c4cc3ccc4O)[C@H](O[C@H]3C[C@](C)(N)[C@@H](O)[C@H](C)O3)c3ccc(c(Cl)c3)Oc3cc2cc(c3O[C@@H]2O[C@H](CO)[C@@H](O)[C@H](O)[C@H]2O[C@H]2C[C@](C)(NCc3ccc(-c4ccc(Cl)cc4)cc3)[C@@H](O)[C@H](C)O2)Oc2ccc(cc2Cl)[C@H]1O [Oritavancin], the Bliss interaction score with S. pneumoniae D39V (main component drawn) was 0.0372; in the assay with S. aureus DSM 20231 (main component drawn), -0.0199; in the assay with S. aureus Newman (main component drawn) it was 0.084; in the assay with B. subtilis 168 (main component drawn), -0.0398.
With `CC[C@H](C)[C@H](N)C1=N[C@H](C(=O)N[C@@H](CC(C)C)C(=O)N[C@H](CCC(=O)O)C(=O)N[C@H](C(=O)N[C@H]2CCCCNC(=O)[C@H](CC(N)=O)NC(=O)[C@@H](CC(=O)O)NC(=O)[C@H](Cc3cnc[nH]3)NC(=O)[C@@H](Cc3ccccc3)NC(=O)[C@H]([C@@H](C)CC)NC(=O)[C@@H](CCCN)NC2=O)[C@@H](C)CC)CS1` [Bacitracin] + Clc1ccc(COC(Cn2ccnc2)c2ccc(Cl)cc2Cl)c(Cl)c1 [Miconazole], the Bliss interaction score was 0.113 with S. pneumoniae D39V (main component drawn), -0.0238 in the assay with S. aureus DSM 20231 (main component drawn), -0.0691 in the assay on S. aureus Newman (main component drawn) and -0.0878 with B. subtilis 168 (main component drawn).
Take `CO[C@@]12[C@H](COC(N)=O)C3=C(C(=O)C(C)=C(N)C3=O)N1C[C@@H]1N[C@@H]12` [MitomycinC] + CN(C)c1cc(NC(=O)CNC(C)(C)C)c(O)c2c1C[C@H]1C[C@H]3[C@H](N(C)C)C(O)=C(C(N)=O)C(=O)[C@@]3(O)C(O)=C1C2=O [Tigecycline]: the Bliss interaction score in the assay with S. pneumoniae D39V is 0.0464; with S. aureus DSM 20231 it was 0.0285; in the assay on S. aureus Newman, -0.0488; in the assay on B. subtilis 168, 0.245.
The like results for `CN[C@H](CC(C)C)C(=O)N[C@H]1C(=O)N[C@@H](CC(N)=O)C(=O)N[C@H]2C(=O)N[C@H]3C(=O)N[C@H](C(=O)N[C@H](C(=O)O)c4cc(O)cc(O)c4-c4cc3ccc4O)[C@H](O[C@H]3C[C@](C)(N)[C@@H](O)[C@H](C)O3)c3ccc(c(Cl)c3)Oc3cc2cc(c3O[C@@H]2O[C@H](CO)[C@@H](O)[C@H](O)[C@H]2O[C@H]2C[C@](C)(NCc3ccc(-c4ccc(Cl)cc4)cc3)[C@@H](O)[C@H](C)O2)Oc2ccc(cc2Cl)[C@H]1O` [Oritavancin] + CN[C@@H]1[C@H](O)[C@H](NC)[C@H]2O[C@@]3(O)C(=O)C[C@@H](C)O[C@H]3O[C@@H]2[C@H]1O [Spectinomycin] were, in that order, 0.0219, -0.0487, -0.154 and -0.0238.
On to `CO[C@H]1/C=C/O[C@@]2(C)Oc3c(C)c(O)c4c(O)c(c(/C=N/N5CCN(C)CC5)c(O)c4c3C2=O)NC(=O)/C(C)=C\C=C\[C@H](C)[C@H](O)[C@@H](C)[C@@H](O)[C@@H](C)[C@H](OC(C)=O)[C@@H]1C` [Rifampicin] + COc1cc(Cc2cnc(N)nc2N)cc(OC)c1OC [Trimethoprim], for which the Bliss interaction score was 0.0931 in the assay on S. pneumoniae D39V, -0.0578 with S. aureus DSM 20231, -0.0473 in the assay with S. aureus Newman and 0.131 in the assay with B. subtilis 168.
